According to patent publication US8476267B2, “Imidazo-, pyrazolopyrazines and imidazotriazines and their use” (Bayer Intellectual Property GmbH, priority 2007, dated 2013):
Structures can show the parent of a compound that is named as a salt.

Target: GSK3β (Homo sapiens (Human), UniProt P49841)
Assay: In vitro biochemical GSK3β inhibition assay (fluorescence, NADH-coupled)
Settings: 5 nM GSK3β, 40 μM substrate GSM, 50 μM ATP, 30° C., 2 hours
Protocol: The inhibitory activity of active substances is determined in a biochemical assay. The ingredients required for this purpose are mixed in a black 384-well microtiter plate with transparent base (from Greiner, catalog number 781092). The requirements in this connection for each well of the 384-well microtiter plate are 5 nM GSK3β (from Upstate, catalog number xy), 40 μM GSK3β substrate GSM (sequence H-RRRPASVPPSPSLSRHS-(pS)-HQRR, from Upstate, catalog number 2-533), 30 μM nicotinamide adenine dinucleotide NADH (Roche Diagnostics, catalog number 10107735), 50 μM adenosine triphosphate ATP (from Sigma, catalog number A7966) and 2 mM phosphoenolpyruvate (from Roche, catalog number 128112). The required reaction buffer in which the biochemical reaction takes place consists of 50 mM Trizma hydrochloride Tris-HCl pH: 7.5 (from Sigma, catalog number T3253), 5 mM magnesium chloride MgCl2 (from Sigma, catalog number M8266), 0.2 mM DL-dithiothreitol DTT (from Sigma, catalog number D9779), 2 mM ethylenediaminetetraacetic acid EDTA (from Sigma, catalog number E6758), 0.01% Triton X-100 (from Sigma, catalog number T8787) and 0.05% bovine serum albumin BSA (from Sigma, catalog number B4287).
Active substances are dissolved in dimethyl sulfoxide DMSO (from Sigma, catalog number D8418) in a concentration of 10 mM. Active substances are added in serial concentrations of 10 μM, 1 μM, 0.1 μM, 0.01 μM, 0.001 μM, 0.0001 μM, 0.00001 μM, 0.000001 μM to the mixtures of the biochemical reaction. As control, dimethyl sulfoxide is added instead of substance in a final concentration of 0.1%.
The reaction is incubated at 30° C. for 2 hours and then the resulting fluorescence is measured in a Tecan Safire-XFLUOR4 instrument, version V4.50 (serial number 12901300283) with the specifications: measurement mode—fluorescence measured from below, extinction wavelength 340 nm, emission wavelength 465 nm, slit width extinction 5 nm, slit width emission 5 nm, gain mode 120, delay 0 μs, number of light flashes per measurement 3, and an integration time of 40 μs.
The activity of the active substances is calculated in relation to these 0% and 100%.

Chain of GSK3β (P49841 whole entry, species assumed): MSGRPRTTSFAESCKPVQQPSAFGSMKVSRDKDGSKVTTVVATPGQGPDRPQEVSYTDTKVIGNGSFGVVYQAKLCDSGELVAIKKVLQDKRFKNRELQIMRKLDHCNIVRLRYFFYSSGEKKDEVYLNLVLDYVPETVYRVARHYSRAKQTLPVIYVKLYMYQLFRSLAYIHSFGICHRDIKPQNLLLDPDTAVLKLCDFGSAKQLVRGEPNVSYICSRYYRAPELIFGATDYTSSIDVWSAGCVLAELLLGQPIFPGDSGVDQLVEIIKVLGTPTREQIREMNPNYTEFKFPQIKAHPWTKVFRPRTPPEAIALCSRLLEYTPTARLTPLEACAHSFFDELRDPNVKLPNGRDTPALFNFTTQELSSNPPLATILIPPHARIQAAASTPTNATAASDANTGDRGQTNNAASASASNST

Row | IC50 | SMILES
1 | 21 nM | N#Cc1ccc(NCCNc2nc(-c3ccc(Cl)cc3Cl)cn3nc(C(=O)O)cc23)nc1 [Example 4, 4-({2-[(5-Cyanopyridin-2-yl)amino]ethyl}amino)-6-(2,4-dichlorophenyl)pyrazolo[1,5-a]pyrazine-2-carboxylic acid hydrochloride]
2 | 30 nM | CN1CCN(CCNC(=O)c2cc3c(NCCNc4ccc(C#N)cn4)nc(-c4ccc(Cl)cc4Cl)cn3n2)CC1 [Example 5]
3 | 310 nM | Cc1nc(C)n2nc(-c3ccccc3)nc(NCCNc3ccc(C#N)cn3)c12 [Example 9, 6-({2-[(5,7-Dimethyl-2-phenylimidazo[5,1-f][1,2,4]triazin-4-yl)amino]ethyl}amino)nicotinonitrile]
4 | 8 nM | CCOC(=O)c1cc2c(N3CCCC(Nc4nc(N)c(C(C)=O)s4)C3)nc(-c3ccc(Cl)cc3Cl)cn2n1 (stereo not shown) [Example 17, Ethyl 4-{3-[(5-acetyl-4-amino-1,3-thiazol-2-yl)amino]piperidin-1-yl}-6-(2,4-dichlorophenyl)pyrazolo[1,5-a]pyrazine-2-carboxylate trifluoroacetate]
5 | 3 nM | N#Cc1sc(NC2CCCN(c3nc(-c4ccc(Cl)cc4Cl)cn4nc(C(=O)O)cc34)C2)nc1N (stereo not shown) [Example 19]
6 | 5 nM | N#Cc1sc(NCCNc2nc(-c3ccc(Cl)cc3Cl)cn3nc(C(=O)NCC(=O)O)cc23)nc1N [Example 24]
7 | 80 nM | N#Cc1ccc(NCCNc2nc(-c3ccc(Cl)cc3Cl)cn3nc(CNC4CC4)cc23)nc1 [Example 58]
